Tested on: maize tissue pools (tassel, ear, leaf, root, stem)
Assay: siRNA profiling microarray assay of mts-siRNA sequences across maize tissues
Settings: for 01DKD2 V8-V9 Tassel relative signal value: germplasm 01DKD2, V8-V9 tassel; for 01DKD2 V10-V12 Tassel relative signal value: germplasm 01DKD2, V10-V12 tassel; for 01DKD2 Other Tissue relative signal value: germplasm 01DKD2, combined signals from other tissue; for LH244 V8-V9 Tassel relative signal value: germplasm LH244, V8-V9 tassel; for LH244 V10-V12 Tassel relative signal value: germplasm LH244, V10-V12 tassel; for LH244 Other Tissue relative signal value: germplasm LH244, combined signals from other tissue
Experimental: A siRNA profiling microarray assay was performed using μParaflo® Microfluidics chips provided by LC Sciences LLC (Houston, Tex., USA) with 1,200 sequences selected from the thousands of mts-siRNA sequences identified from the differential bioinformatic analysis. The microarray chips contained triplicate probes of the complementary sequence for each of the 1,200 mts-siRNA sequences. Total RNA was purified from 26 maize tissue pools (duplicate or triplicate tissue pools) from either LH244 (ATCC deposit number PTA-1173) or 01DKD2 (I294213) (ATCC deposit number PTA-7859) inbred plants. Each of the 26 RNA samples were hybridized with the microarray chips that contain probes for the 1,200 mts-siRNA. Hybridization images were collected using a GenePix® 4000B laser scanner (Molecular Devices, Sunnyvale, Calif.) and digitized using Array-Pro® Analyzer image analysis software (Media Cybernetics, Rockville, Md.). Relative signal values were derived by background subtraction and normalization. Differentially expressed signals were determined by t-test with p<0.05. From the microarray analysis, about 500 mts-siRNA from the 1,200 were identified as being highly tassel-specific.
Selected mts-siRNA sequences aligning to one of the six cDNA sequences were used for further microarray analysis to determine differential expression across maize tissues. Microarray analysis for mts-siRNA sequences of normalized signal values for V8-V9 tassel, V10-V12 tassel, or combined signals from the other tissue for maize germplasm LH244 and 01DKD2 is presented in Tables 3-10. […] Signal value results are measured as relative signal values and standard error (p<0.05) is represented by (STDR). […] The mts-siRNA sequence corresponds to the sense or antisense strand of the corresponding mts-siRNA target sequence in the cDNA sequence. The mts-siRNA sequence may have a single nucleotide, a two nucleotide, or a three nucleotide mismatch with the aligned portion of the cDNA sequence, and the mts-siRNA sequence may align to the sense strand or antisense strand of the cDNA sequence. The mts-siRNA sequences provided here are found across different maize germplasms.

Substance | 01DKD2 V8-V9 Tassel relative signal value | 01DKD2 V10-V12 Tassel relative signal value | 01DKD2 Other Tissue relative signal value | LH244 V8-V9 Tassel relative signal value | LH244 V10-V12 Tassel relative signal value | LH244 Other Tissue relative signal value
SEQ ID NO: 62: mts-siRNA sequence aligning to cDNA SEQ ID NO: 21 (CAAATGAGTCATCGAAGCTGT; expressed or natural sequence) | 13.5 | 15.5 | 1 | 44.5 | 11.3 | 1.8
SEQ ID NO: 38: mts-siRNA sequence aligning to cDNA SEQ ID NO: 18 (CTCAACATCCGATTCACCCTCA; expressed or natural sequence) | 8.5 | 1305.5 | 3 | 768.5 | 1442.7 | 1.4
SEQ ID NO: 66: mts-siRNA sequence aligning to cDNA SEQ ID NO: 21 (TGGTCATACACTAGATAGGGC; expressed or natural sequence) | 61 | 55.5 | 2.8 | 199.5 | 48 | 1.9
SEQ ID NO: 32: mts-siRNA sequence aligning to cDNA SEQ ID NO: 18 (TAGCCACACGGTCACGTTTGGAC; expressed or natural sequence) | 7.5 | 516 | 2.8 | 376.5 | 118 | 2
SEQ ID NO: 46: mts-siRNA sequence aligning to cDNA SEQ ID NO: 19 (CAGCTAATACGACGACCATTTAGG; expressed or natural sequence) | 252 | 6778 | 6.8 | 4502.5 | 8663.3 | 8.4
SEQ ID NO: 47: mts-siRNA sequence aligning to cDNA SEQ ID NO: 19 (TGGTGTGGTCGTTAGCTACTTTA; expressed or natural sequence) | 12.5 | 1051.5 | 4 | 157.5 | 900.7 | 15.5
SEQ ID NO: 28: mts-siRNA sequence aligning to cDNA SEQ ID NO: 17 (GACATTTGCAGTTCTATGGTGT; expressed or natural sequence) | 29 | 134.5 | 3.8 | 126.5 | 248 | 2.4
SEQ ID NO: 42: mts-siRNA sequence aligning to cDNA SEQ ID NO: 18 (ACTACAGTGAGAGTCTAGGAAAGC; expressed or natural sequence) | 6 | 588 | 5.3 | 143.5 | 564.3 | 2.6
SEQ ID NO: 85: mts-siRNA sequence aligning to cDNA SEQ ID NO: 22 (CAAGGCAAGAAGGTGCTTGTTGT; expressed or natural sequence) | 2.5 | 246 | 2.5 | 184 | 310 | 2.8
SEQ ID NO: 40: mts-siRNA sequence aligning to cDNA SEQ ID NO: 18 (CCTTGCGCCTTAACTATCGTGC; expressed or natural sequence) | 7.5 | 452 | 2.8 | 119 | 448.7 | 1.5
SEQ ID NO: 51: mts-siRNA sequence aligning to cDNA SEQ ID NO: 19 (TGCCGAAGTGTGTCGTGACATTGG; expressed or natural sequence) | 24.5 | 275.5 | 40 | 158 | 287 | 34.3
SEQ ID NO: 74: mts-siRNA sequence aligning to cDNA SEQ ID NO: 22 (AGGCCTCCCTTCCCTATG; expressed or natural sequence) | 43.5 | 171 | 45.8 | 83.5 | 129 | 164.2
SEQ ID NO: 80: mts-siRNA sequence aligning to cDNA SEQ ID NO: 22 (CATCAACGACTACAACGGTGAA; expressed or natural sequence) | 2.5 | 230 | 0.5 | 138 | 383.3 | 0.7
SEQ ID NO: 34: mts-siRNA sequence aligning to cDNA SEQ ID NO: 18 (ACGTGCATATCGCCATCCTCTGCT; expressed or natural sequence) | 8.5 | 982 | 3.5 | 848.5 | 572.7 | 3
SEQ ID NO: 73: mts-siRNA sequence aligning to cDNA SEQ ID NO: 22 (AAGCTATCGATTCCCTAAGTGCCA; expressed or natural sequence) | 37.5 | 1695.5 | 2 | 1058.5 | 2395.7 | 4.5
SEQ ID NO: 68: mts-siRNA sequence aligning to cDNA SEQ ID NO: 21 (GAACAGTGATTTTATGAGCAA; expressed or natural sequence) | 98 | 96 | 2.5 | 265 | 85.3 | 5
SEQ ID NO: 59: mts-siRNA sequence aligning to cDNA SEQ ID NO: 20 (ATGCCAAAGGTACCGATGTTAG; expressed or natural sequence) | 202 | 811.5 | 0.3 | 789 | 1262.7 | 4.1
SEQ ID NO: 31: mts-siRNA sequence aligning to cDNA SEQ ID NO: 17 (ACACGCATGTCACATCGCCGTC; expressed or natural sequence) | 0 | 26.5 | 2.8 | 8 | 49 | 1.2
SEQ ID NO: 64: mts-siRNA sequence aligning to cDNA SEQ ID NO: 21 (GCATATATGTGATGAAGACCG; expressed or natural sequence) | 13.5 | 9 | 1.3 | 23 | 13.7 | 1.8
SEQ ID NO: 53: mts-siRNA sequence aligning to cDNA SEQ ID NO: 20 (CCATGTAATACACAGTGTCGTC; expressed or natural sequence) | 16 | 84 | 1.5 | 76.5 | 145 | 2.2

Reference: patent US20170029841A1, “METHODS AND COMPOSITIONS FOR SELECTIVE REGULATION OF PROTEIN EXPRESSION” (priority 2015, published 2017)
